Measured values taken from patent US10414811B2, “Protease-resistant lipidated GLP-1 analogs” (MEDIMMUNE LIMITED, priority 2015, dated 2019).
pEC50: −log10 of the molar value. Read-outs that look alike come from different tables or passages of the source. Numbered stars: 1 amine (or outer) side, 2 acyl side, 3 side chain; on linkers, the order of the positions; unused ones are H or OH. Square brackets hold non-standard residues; d marks the D form. Side chains are listed from the residue outwards. Peptide text beside a SMILES is read from it. * marks the point of attachment. γGlu = O=C(O)[C@H](CCC(=O)[*:2])N[*:1]; Palmitoyl = CCCCCCCCCCCCCCCC(=O)*; αMeF = C[C@](N)(Cc1ccccc1)C(=O)O; αMeK = C[C@](N)(CCCCN)C(=O)O; αMeS = C[C@](N)(CO)C(=O)O; Aib = CC(C)(N)C(=O)O

Experiments:
Format in all cases: cell-based
[1] = molecular target: T1, human glucose-dependent insulinotropic peptide receptor (GIPR) (Homo sapiens, UniProt P48546); test: cAMP assay, human GIPR cells; details: cAMP assay
T1 construct: expressed in transfected cells
T1 sequence (P48546 22-466): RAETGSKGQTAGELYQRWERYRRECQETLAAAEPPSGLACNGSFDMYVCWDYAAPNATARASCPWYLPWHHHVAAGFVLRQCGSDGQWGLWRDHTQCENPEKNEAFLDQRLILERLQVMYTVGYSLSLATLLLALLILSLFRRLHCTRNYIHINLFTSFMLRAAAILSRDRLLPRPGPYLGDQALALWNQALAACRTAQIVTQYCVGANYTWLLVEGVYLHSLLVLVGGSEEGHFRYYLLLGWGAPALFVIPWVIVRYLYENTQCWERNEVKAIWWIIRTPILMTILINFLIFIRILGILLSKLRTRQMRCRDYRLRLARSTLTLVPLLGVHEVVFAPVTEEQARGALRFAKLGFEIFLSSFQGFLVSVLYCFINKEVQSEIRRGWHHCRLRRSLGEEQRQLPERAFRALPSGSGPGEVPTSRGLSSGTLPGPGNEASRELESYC
Outline: (§1)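 Peptide-stimulated cAMP measured by two-step HTRF after a 30 min room-temperature incubation with receptor-expressing cells (hGLP-1R, hGIPR at 1×10^5 cells/ml; hGCGR at 2×10^5 cells/ml). Duplicate dilutions; EC50 from 4-parameter logistic fit of % Delta F.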

GLP-1R (INS1e assay) = molecular target: T2, GLP-1R (INS1e assay) (Rattus norvegicus, UniProt P32301); test: INS1e assay, cAMP activity at GLP-1R; details: mono-lipidated peptides; for EC50: mean of n1 and n2, read-out: INS1e assay EC50 Mean pM GLP-1R
T2 construct: endogenous in cells; host or cells: INS-1E cells
T2 sequence (P32301 22-463): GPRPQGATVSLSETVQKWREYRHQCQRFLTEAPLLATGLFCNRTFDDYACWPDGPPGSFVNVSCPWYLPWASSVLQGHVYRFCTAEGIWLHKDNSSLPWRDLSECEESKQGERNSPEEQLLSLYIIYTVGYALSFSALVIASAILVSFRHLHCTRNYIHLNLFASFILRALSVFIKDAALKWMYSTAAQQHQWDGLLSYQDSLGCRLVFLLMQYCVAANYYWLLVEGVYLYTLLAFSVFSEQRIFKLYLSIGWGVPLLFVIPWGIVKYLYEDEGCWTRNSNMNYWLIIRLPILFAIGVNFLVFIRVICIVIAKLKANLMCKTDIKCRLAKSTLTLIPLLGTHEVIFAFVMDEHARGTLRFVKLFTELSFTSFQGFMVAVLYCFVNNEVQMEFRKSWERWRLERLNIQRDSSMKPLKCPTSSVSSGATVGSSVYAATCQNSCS
Outline: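 It pairs cAMP-d2 acceptor with anti-cAMP cryptate donor, both prepared 1/20 in conjugate/lysis buffer, applied as a two-step protocol.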

[2] = molecular target: T3, human glucagon receptor (GCGR) (Homo sapiens, UniProt P47871); test: cAMP assay, human GCGR cells; details: cAMP assay
T3 construct: expressed in transfected cells
Outline: as §1

[3] = molecular target: T4, human GLP-1 receptor (GLP-1R) (Homo sapiens, UniProt P43220); test: cAMP assay, human GLP-1R cells; details: for pEC50: cAMP assay; for EC50: mean of n1 and n2, read-out: Mean pM GLP-1R
T4 construct: expressed in transfected cells
Outline: as §1

[4] = first determination (n1), read-out: Primary assay EC50 GIP-R (n1)
[5] = second determination (n2), read-out: Primary assay EC50 GIP-R (n2)
[6] = replicate n1, read-out: INS1e assay EC50 GLP-1R n1
[7] = replicate n2, read-out: INS1e assay EC50 GLP-1R n2
[8] = first determination (n1), read-out: Primary assay EC50 Gluc-R (n1)
[9] = second determination (n2), read-out: Primary assay EC50 Gluc-R (n2)
[10] = first determination (n1), read-out: Primary assay EC50 GLP-1R n1
[11] = second determination (n2), read-out: Primary assay EC50 GLP-1R n2

T4 sequence (P43220 24-463): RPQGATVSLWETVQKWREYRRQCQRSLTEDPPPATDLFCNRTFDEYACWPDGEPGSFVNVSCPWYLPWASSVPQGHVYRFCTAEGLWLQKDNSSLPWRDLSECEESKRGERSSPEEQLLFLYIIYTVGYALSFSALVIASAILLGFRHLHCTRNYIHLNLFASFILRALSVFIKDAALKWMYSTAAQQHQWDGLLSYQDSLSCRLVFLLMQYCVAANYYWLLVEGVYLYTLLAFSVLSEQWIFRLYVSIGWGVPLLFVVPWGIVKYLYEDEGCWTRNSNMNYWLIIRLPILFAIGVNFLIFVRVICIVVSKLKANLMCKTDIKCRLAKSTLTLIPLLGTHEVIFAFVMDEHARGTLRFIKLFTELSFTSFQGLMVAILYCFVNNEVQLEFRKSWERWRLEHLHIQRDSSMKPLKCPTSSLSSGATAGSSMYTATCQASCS
T3 sequence (P47871 26-477): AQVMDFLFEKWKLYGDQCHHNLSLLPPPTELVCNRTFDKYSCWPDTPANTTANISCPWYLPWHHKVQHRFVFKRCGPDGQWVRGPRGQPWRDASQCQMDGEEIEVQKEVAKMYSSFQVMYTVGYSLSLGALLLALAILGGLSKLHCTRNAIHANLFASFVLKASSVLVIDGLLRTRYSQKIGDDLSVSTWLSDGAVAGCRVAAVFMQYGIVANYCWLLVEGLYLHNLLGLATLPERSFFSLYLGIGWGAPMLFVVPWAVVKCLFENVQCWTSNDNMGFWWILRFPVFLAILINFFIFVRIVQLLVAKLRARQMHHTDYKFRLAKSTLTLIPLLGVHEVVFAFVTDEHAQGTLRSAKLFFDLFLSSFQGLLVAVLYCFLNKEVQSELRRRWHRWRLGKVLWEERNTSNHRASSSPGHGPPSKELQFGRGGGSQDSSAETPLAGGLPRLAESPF

SMILES | pEC50 [1, 4] | pEC50 [1, 5] | EC50 (GLP-1R (INS1e assay)) | pEC50 (GLP-1R (INS1e assay); [6]) | pEC50 (GLP-1R (INS1e assay); [7]) | pEC50 [2, 8] | pEC50 [2, 9] | pEC50 [3, 10] | pEC50 [3, 11] | EC50 [3]
CCCCCCCCCCCCCCCC(=O)N[C@@H](CCC(=O)NCCCC[C@H](NC(=O)[C@](C)(CCCCN)NC(=O)[C@H](C)NC(=O)[C@H](C)NC(=O)[C@H](CCC(=O)O)NC(=O)CNC(=O)[C@H](CCC(=O)O)NC(=O)[C@H](CC(C)C)NC(=O)[C@](C)(Cc1ccccc1)NC(=O)[C@H](CO)NC(=O)[C@](C)(CO)NC(=O)[C@@H](NC(=O)[C@H](CC(=O)O)NC(=O)[C@H](CO)NC(=O)[C@@H](NC(=O)[C@](C)(Cc1ccccc1)NC(=O)[C@H](CO)NC(=O)CNC(=O)[C@H](CCC(=O)O)NC(=O)C(C)(C)NC(=O)[C@@H](N)Cc1c[nH]cn1)[C@@H](C)O)C(C)C)C(=O)N[C@@](C)(Cc1ccccc1)C(=O)N[C@H](C(=O)N[C@@H](C)C(=O)N[C@@](C)(Cc1ccccc1)C(=O)N[C@H](C(=O)N[C@H](C(=O)N[C@@](C)(CCCCN)C(=O)NCC(=O)NCC(N)=O)C(C)C)C(C)C)[C@@H](C)CC)C(=O)O [compound 79] (H-H[Aib]EGS[αMeF]TSDV[αMeS]S[αMeF]LEGEAA[αMeK]K([γGlu-Palmitoyl])[αMeF]IA[αMeF]VV[αMeK]GG-NH2) | ≤ 7.55 | ≤ 7.55 | 408 pM | 9.54 | 9.28 | ≤ 7.55 | ≤ 7.55 | 11.41 | 11.64 | 3.1 pM
CCCCCCCCCCCCCCCC(=O)N[C@@H](CCC(=O)NCCCC[C@H](NC(=O)[C@H](C)NC(=O)[C@H](C)NC(=O)[C@H](CCC(=O)O)NC(=O)CNC(=O)[C@H](CCC(=O)O)NC(=O)[C@H](CC(C)C)NC(=O)[C@](C)(Cc1ccccc1)NC(=O)[C@H](CO)NC(=O)[C@](C)(CO)NC(=O)[C@@H](NC(=O)[C@H](CC(=O)O)NC(=O)[C@H](CO)NC(=O)[C@@H](NC(=O)[C@](C)(Cc1ccccc1)NC(=O)[C@H](CO)NC(=O)CNC(=O)[C@H](CCC(=O)O)NC(=O)C(C)(C)NC(=O)[C@@H](N)Cc1c[nH]cn1)[C@@H](C)O)C(C)C)C(=O)N[C@@H](CCC(=O)O)C(=O)N[C@@](C)(Cc1ccccc1)C(=O)N[C@H](C(=O)N[C@@H](C)C(=O)N[C@@](C)(Cc1ccccc1)C(=O)N[C@H](C(=O)N[C@H](C(=O)N[C@@](C)(CCCCN)C(=O)NCC(=O)NCC(N)=O)C(C)C)C(C)C)[C@@H](C)CC)C(=O)O [compound 80] | ≤ 7.55 | ≤ 7.55 | 2610 pM | 8.41 | 8.88 | ≤ 7.55 | ≤ 7.55 | 10.51 | 10.77 | 24 pM
CCCCCCCCCCCCCCCC(=O)N[C@@H](CCC(=O)NCCCC[C@H](NC(=O)[C@H](CCC(=O)O)NC(=O)CNC(=O)[C@H](CCC(=O)O)NC(=O)[C@H](CC(C)C)NC(=O)[C@](C)(Cc1ccccc1)NC(=O)[C@H](CO)NC(=O)[C@](C)(CO)NC(=O)[C@@H](NC(=O)[C@H](CC(=O)O)NC(=O)[C@H](CO)NC(=O)[C@@H](NC(=O)[C@](C)(Cc1ccccc1)NC(=O)[C@H](CO)NC(=O)CNC(=O)[C@H](CCC(=O)O)NC(=O)C(C)(C)NC(=O)[C@@H](N)Cc1c[nH]cn1)[C@@H](C)O)C(C)C)C(=O)N[C@@H](C)C(=O)N[C@@](C)(CCCCN)C(=O)N[C@@H](CCC(=O)O)C(=O)N[C@@](C)(Cc1ccccc1)C(=O)N[C@H](C(=O)N[C@@H](C)C(=O)N[C@@](C)(Cc1ccccc1)C(=O)N[C@H](C(=O)N[C@H](C(=O)N[C@@](C)(CCCCN)C(=O)NCC(=O)NCC(N)=O)C(C)C)C(C)C)[C@@H](C)CC)C(=O)O [compound 82] (H-H[Aib]EGS[αMeF]TSDV[αMeS]S[αMeF]LEGEK([γGlu-Palmitoyl])A[αMeK]E[αMeF]IA[αMeF]VV[αMeK]GG-NH2; N-terminus assumed) | ≤ 7.57 | ≤ 7.57 | 195 pM | 9.82 | 9.62 | ≤ 7.57 | ≤ 7.57 | 11.52 | 11.70 | 2.5 pM
CCCCCCCCCCCCCCCC(=O)N[C@@H](CCC(=O)NCCCC[C@H](NC(=O)CNC(=O)[C@H](CCC(=O)O)NC(=O)[C@H](CC(C)C)NC(=O)[C@](C)(Cc1ccccc1)NC(=O)[C@H](CO)NC(=O)[C@](C)(CO)NC(=O)[C@@H](NC(=O)[C@H](CC(=O)O)NC(=O)[C@H](CO)NC(=O)[C@@H](NC(=O)[C@](C)(Cc1ccccc1)NC(=O)[C@H](CO)NC(=O)CNC(=O)[C@H](CCC(=O)O)NC(=O)C(C)(C)NC(=O)[C@@H](N)Cc1c[nH]cn1)[C@@H](C)O)C(C)C)C(=O)N[C@@H](C)C(=O)N[C@@H](C)C(=O)N[C@@](C)(CCCCN)C(=O)N[C@@H](CCC(=O)O)C(=O)N[C@@](C)(Cc1ccccc1)C(=O)N[C@H](C(=O)N[C@@H](C)C(=O)N[C@@](C)(Cc1ccccc1)C(=O)N[C@H](C(=O)N[C@H](C(=O)N[C@@](C)(CCCCN)C(=O)NCC(=O)NCC(N)=O)C(C)C)C(C)C)[C@@H](C)CC)C(=O)O [compound 83] (H-H[Aib]EGS[αMeF]TSDV[αMeS]S[αMeF]LEGK([γGlu-Palmitoyl])AA[αMeK]E[αMeF]IA[αMeF]VV[αMeK]GG-NH2) | ≤ 7.55 | ≤ 7.55 | 194 pM | 9.86 | 9.60 | ≤ 7.55 | ≤ 7.55 | 11.49 | 11.40 | 3.6 pM
CCCCCCCCCCCCCCCC(=O)N[C@@H](CCC(=O)NCCCC[C@H](NC(=O)[C@](C)(Cc1ccccc1)NC(=O)[C@H](CO)NC(=O)[C@](C)(CO)NC(=O)[C@@H](NC(=O)[C@H](CC(=O)O)NC(=O)[C@H](CO)NC(=O)[C@@H](NC(=O)[C@](C)(Cc1ccccc1)NC(=O)[C@H](CO)NC(=O)CNC(=O)[C@H](CCC(=O)O)NC(=O)C(C)(C)NC(=O)[C@@H](N)Cc1c[nH]cn1)[C@@H](C)O)C(C)C)C(=O)N[C@@H](CCC(=O)O)C(=O)NCC(=O)N[C@@H](CCC(=O)O)C(=O)N[C@@H](C)C(=O)N[C@@H](C)C(=O)N[C@@](C)(CCCCN)C(=O)N[C@@H](CCC(=O)O)C(=O)N[C@@](C)(Cc1ccccc1)C(=O)N[C@H](C(=O)N[C@@H](C)C(=O)N[C@@](C)(Cc1ccccc1)C(=O)N[C@H](C(=O)N[C@H](C(=O)N[C@@](C)(CCCCN)C(=O)NCC(=O)NCC(N)=O)C(C)C)C(C)C)[C@@H](C)CC)C(=O)O [compound 86] (H-H[Aib]EGS[αMeF]TSDV[αMeS]S[αMeF]K([γGlu-Palmitoyl])EGEAA[αMeK]E[αMeF]IA[αMeF]VV[αMeK]GG-NH2) | ≤ 7.55 | ≤ 7.55 | 65 pM | 10.34 | 10.07 | ≤ 7.55 | ≤ 7.55 | 11.89 | 11.77 | 1.5 pM
CCCCCCCCCCCCCCCC(=O)N[C@@H](CCC(=O)NCCCC[C@H](NC(=O)[C@H](CO)NC(=O)[C@](C)(CO)NC(=O)[C@@H](NC(=O)[C@H](CC(=O)O)NC(=O)[C@H](CO)NC(=O)[C@@H](NC(=O)[C@](C)(Cc1ccccc1)NC(=O)[C@H](CO)NC(=O)CNC(=O)[C@H](CCC(=O)O)NC(=O)C(C)(C)NC(=O)[C@@H](N)Cc1c[nH]cn1)[C@@H](C)O)C(C)C)C(=O)N[C@@H](CC(C)C)C(=O)N[C@@H](CCC(=O)O)C(=O)NCC(=O)N[C@@H](CCC(=O)O)C(=O)N[C@@H](C)C(=O)N[C@@H](C)C(=O)N[C@@](C)(CCCCN)C(=O)N[C@@H](CCC(=O)O)C(=O)N[C@@](C)(Cc1ccccc1)C(=O)N[C@H](C(=O)N[C@@H](C)C(=O)N[C@@](C)(Cc1ccccc1)C(=O)N[C@H](C(=O)N[C@H](C(=O)N[C@@](C)(CCCCN)C(=O)NCC(=O)NCC(N)=O)C(C)C)C(C)C)[C@@H](C)CC)C(=O)O [compound 87] | ≤ 7.55 | ≤ 7.55 | 53 pM | 10.36 | 10.21 | ≤ 7.55 | ≤ 7.55 | 11.80 | 11.80 | 1.6 pM
